Experimental data from US9993494B2, “Compositions and methods for treating fibrotic disease” (eFFECTOR Therapeutics, Inc., priority 2014, dated 2018).

Test system: normal human lung fibroblasts
Assay: Ribosomal profiling: translational efficiency in TGFβ-treated fibroblasts
Format: cell-based
Conditions: TGFβ-treated fibroblasts
Method: Ribosomal profiling allows for measurement of changes in transcription and translation on a genome-wide basis accompanying TGFβ-dependent transformation of fibroblasts to myofibroblasts. Ribosomal profiles of the TGFβ-treated fibroblasts from Example 1 (about 6×10^6 cells/10 cm plate) were prepared and analyzed for changes in translational efficiencies with respect to potential disease-associated cellular changes accompanying this TGFβ-induced transformation.
Briefly, cells were washed with cold PBS supplemented with cycloheximide and lysed with 1× mammalian cell lysis buffer for 10 minutes on ice. Lysates were clarified by centrifugation for 10 minutes at 14,000 rpm and supernatants were collected. Cell lysates were processed to generate ribosomal protected fragments and total mRNA according to the instructions included with the ARTseq Ribosome Profiling Kit (Illumina, San Diego, Calif.). Sequencing of total RNA (RNA) and of ribosome-protected fragments of RNA (RPF) was carried out using RNA-Seq methodology according to the manufacturer's instructions (Illumina). To analyze the ribosomal profiles, RNA-Seq reads were processed with tools from the FASTX-Toolkit (fastq_quality_trimmer, fastx_clipper and fastx_trimmer). Unprocessed and processed reads were evaluated for a variety of quality measures using FastQC, and processed reads were mapped to the human genome using TopHat (see, e.g., Trapnell et al., Bioinformatics 25:1105, 2009). Gene-by-gene assessment of the number of fragments strictly and uniquely mapping to the coding region of each gene was conducted using HTSeq-count, a component of the HTSeq package. […] Genes with low counts in either RPF or RNA were excluded from differential analyses. Pathway and network analyses of differential data were conducted using Ingenuity Pathway Analysis (IPA).

Question: What does the source list for CC(C)n1nc(-c2cc3cc(O)ccc3[nH]2)c2c(N)ncnc21 [PP242]?
Answer: effect in renormalizing the translational profile of the gene (gene RPS6KA5 (ENSG00000100784)): + (+ = 0.9 to 1.5); effect in renormalizing the translational profile of the gene (gene RPS7 (ENSG00000171863)): − (− = <0.9); effect in renormalizing the translational profile of the gene (gene RPS8 (ENSG00000142937)): − (− = <0.9); effect in renormalizing the translational profile of the gene (gene RPS9 (ENSG00000170889)): − (− = <0.9); effect in renormalizing the translational profile of the gene (gene RPS10 (ENSG00000124614)): − (− = <0.9); effect in renormalizing the translational profile of the gene (gene RPS11 (ENSG00000142534)): − (− = <0.9); effect in renormalizing the translational profile of the gene (gene RPS12 (ENSG00000112306)): − (− = <0.9); effect in renormalizing the translational profile of the gene (gene RPS13 (ENSG00000110700)): − (− = <0.9); effect in renormalizing the translational profile of the gene (gene RPS14 (ENSG00000164587)): − (− = <0.9); effect in renormalizing the translational profile of the gene (gene RPS15 (ENSG00000115268)): + (+ = 0.9 to 1.5); effect in renormalizing the translational profile of the gene (gene RPS15A (ENSG00000134419)): + (+ = 0.9 to 1.5); effect in renormalizing the translational profile of the gene (gene RPS16 (ENSG00000105193)): − (− = <0.9); effect in renormalizing the translational profile of the gene (gene RPS18 (ENSG00000231500)): + (+ = 0.9 to 1.5); effect in renormalizing the translational profile of the gene (gene RPS19 (ENSG00000105372)): − (− = <0.9); effect in renormalizing the translational profile of the gene (gene RPS20 (ENSG00000008988)): − (− = <0.9); effect in renormalizing the translational profile of the gene (gene RPS21 (ENSG00000171858)): − (− = <0.9); effect in renormalizing the translational profile of the gene (gene RPS23 (ENSG00000186468)): − (− = <0.9); effect in renormalizing the translational profile of the gene (gene RPS24 (ENSG00000138326)): − (− = <0.9); effect in renormalizing the translational profile of the gene (gene RPS25 (ENSG00000118181)): − (− = <0.9); effect in renormalizing the translational profile of the gene (gene RPS26 (ENSG00000197728)): − (− = <0.9); effect in renormalizing the translational profile of the gene (gene RPS27 (ENSG00000177954)): − (− = <0.9); effect in renormalizing the translational profile of the gene (gene RPS27A (ENSG00000143947)): − (− = <0.9); effect in renormalizing the translational profile of the gene (gene RPS28 (ENSG00000233927)): + (+ = 0.9 to 1.5); effect in renormalizing the translational profile of the gene (gene RPS29 (ENSG00000213741)): + (+ = 0.9 to 1.5); effect in renormalizing the translational profile of the gene (gene RPSA (ENSG00000168028)): − (− = <0.9); effect in renormalizing the translational profile of the gene (gene RTN2 (ENSG00000125744)): − (− = <0.9); effect in renormalizing the translational profile of the gene (gene SEMA3A (ENSG00000075213)): − (− = <0.9); effect in renormalizing the translational profile of the gene (gene SGIP1 (ENSG00000118473)): − (− = <0.9); effect in renormalizing the translational profile of the gene (gene SH3BGR (ENSG00000185437)): − (− = <0.9); effect in renormalizing the translational profile of the gene (gene SHC3 (ENSG00000148082)): − (− = <0.9); effect in renormalizing the translational profile of the gene (gene SLC2A12 (ENSG00000146411)): − (− = <0.9); effect in renormalizing the translational profile of the gene (gene SLC7A7 (ENSG00000155465)): − (− = <0.9); effect in renormalizing the translational profile of the gene (gene SLC15A3 (ENSG00000110446)): − (− = <0.9); effect in renormalizing the translational profile of the gene (gene SLC25A6 (ENSG00000169100)): − (− = <0.9); effect in renormalizing the translational profile of the gene (gene SLC40A1 (ENSG00000138449)): − (− = <0.9); effect in renormalizing the translational profile of the gene (gene SMO (ENSG00000128602)): − (− = <0.9); effect in renormalizing the translational profile of the gene (gene SNRPA (ENSG00000077312)): − (− = <0.9); effect in renormalizing the translational profile of the gene (gene SOX5 (ENSG00000134532)): − (− = <0.9); effect in renormalizing the translational profile of the gene (gene SOX6 (ENSG00000110693)): − (− = <0.9); effect in renormalizing the translational profile of the gene (gene SPATA6 (ENSG00000132122)): + (+ = 0.9 to 1.5); effect in renormalizing the translational profile of the gene (gene STAMBPL1 (ENSG00000138134)): − (− = <0.9); effect in renormalizing the translational profile of the gene (gene STS (ENSG00000101846)): − (− = <0.9); effect in renormalizing the translational profile of the gene (gene SYNE2 (ENSG00000054654)): − (− = <0.9); effect in renormalizing the translational profile of the gene (gene TAF1D (ENSG00000166012)): − (− = <0.9); effect in renormalizing the translational profile of the gene (gene TDG (ENSG00000139372)): − (− = <0.9); effect in renormalizing the translational profile of the gene (gene TEN1 (ENSG00000257949)): − (− = <0.9); effect in renormalizing the translational profile of the gene (gene TET2 (ENSG00000168769)): − (− = <0.9); effect in renormalizing the translational profile of the gene (gene TET3 (ENSG00000187605)): − (− = <0.9); effect in renormalizing the translational profile of the gene (gene TGFBI (ENSG00000120708)): − (− = <0.9); effect in renormalizing the translational profile of the gene (gene THBS3 (ENSG00000169231)): + (+ = 0.9 to 1.5); effect in renormalizing the translational profile of the gene (gene THG1L (ENSG00000113272)): − (− = <0.9); effect in renormalizing the translational profile of the gene (gene TIMM9 (ENSG00000100575)): − (− = <0.9); effect in renormalizing the translational profile of the gene (gene TKT (ENSG00000163931)): − (− = <0.9); effect in renormalizing the translational profile of the gene (gene TMTC1 (ENSG00000133687)): − (− = <0.9); effect in renormalizing the translational profile of the gene (gene TOMM7 (ENSG00000196683)): − (− = <0.9); effect in renormalizing the translational profile of the gene (gene TOP2A (ENSG00000131747)): − (− = <0.9); effect in renormalizing the translational profile of the gene (gene TPGS1 (ENSG00000141933)): − (− = <0.9); effect in renormalizing the translational profile of the gene (gene TPM2 (ENSG00000198467)): − (− = <0.9); effect in renormalizing the translational profile of the gene (gene TPT1 (ENSG00000133112)): − (− = <0.9); effect in renormalizing the translational profile of the gene (gene TRERF1 (ENSG00000124496)): − (− = <0.9); effect in renormalizing the translational profile of the gene (gene UBA52 (ENSG00000221983)): − (− = <0.9); effect in renormalizing the translational profile of the gene (gene UQCRB (ENSG00000156467)): − (− = <0.9); effect in renormalizing the translational profile of the gene (gene UTRN (ENSG00000152818)): − (− = <0.9); effect in renormalizing the translational profile of the gene (gene VIM (ENSG00000026025)): − (− = <0.9); effect in renormalizing the translational profile of the gene (gene ZNF581 (ENSG00000171425)): − (− = <0.9); effect in renormalizing the translational profile of the gene (gene ZNF608 (ENSG00000168916)): − (− = <0.9)
